Consider 3 molecules from patent US20210206817A1, “Metabolically Stable Apelin Analogs in the Treatment of Disease Mediated by the Apelin Receptor” (priority 2014, published 2021).

For series [1], the system named is rat glomerular arterioles precontracted by Angiotensin II (AngII). Kind of series: Diameter of glomerular arterioles precontracted by angiotensin II. The protocol:
The left kidney of male rats was prepared for microdissection of arterioles as previously described (44). Glomerular arterioles were isolated under stereomicroscopic observation. The afferent and muscular efferent arterioles were isolated with the glomerulus and identify according their morphology and localization in the inner renal cortex as previously described by Helou et al. […] For these experiments afferent and muscular efferent arterioles were microdissected attached to the gomeruli. […] Arteriolar diameters were measured with Adobe Photoshop CS. Diameters were measured on a distance equal to about 100 μm upstream of the glomerulus and triplicate were performed for each arteriole. Calibration was made using a stage micrometer. The average diameter for each experimental condition was used for statistical analysis.

Series [2] deals with rat aortic rings precontracted by noradrenaline (NA). As to the kind of experiment: Isometric tension of aortic rings precontracted by noradrenaline. The protocol: The experiments were performed in rat aortic rings as previously described (39). […] The aortas were cleaned of excess connective tissue and fat and cut into rings of approximately 3-4 mm in length. Special care was taken to avoid damaging the luminal surface of the endothelium. […] One end of the aortic ring was connected to a tissue holder and the other to an isometric force transducer (EMKA Technologies, Paris, France). […] During equilibration period, the rings were washed every 30 min. Then, a first relaxation to acetylcholine (Ach, 10^−4 mol/L) was implemented to check the integrity or the absence of the endothelium in rings precontracted with NA (3×10^−8 mol/L). After rinsing with PSS to baseline tension, rings were equilibrated for 90 min. […] Each concentration of the drug was added at the maximal effect of the precedent concentration. The concentration-response curves were continuously recorded on a PC by means of IOX v 2.4 (EMKA Technologies, Paris) for further analysis (Datanalyst v2.1, EMKA Technologies, Paris).

The target of series [3] is T1, rat apelin receptor-EGFP (Rattus norvegicus, UniProt Q9JHG3).
T1 construct: expressed in transfected cells
T1 sequence (Q9JHG3 1-377): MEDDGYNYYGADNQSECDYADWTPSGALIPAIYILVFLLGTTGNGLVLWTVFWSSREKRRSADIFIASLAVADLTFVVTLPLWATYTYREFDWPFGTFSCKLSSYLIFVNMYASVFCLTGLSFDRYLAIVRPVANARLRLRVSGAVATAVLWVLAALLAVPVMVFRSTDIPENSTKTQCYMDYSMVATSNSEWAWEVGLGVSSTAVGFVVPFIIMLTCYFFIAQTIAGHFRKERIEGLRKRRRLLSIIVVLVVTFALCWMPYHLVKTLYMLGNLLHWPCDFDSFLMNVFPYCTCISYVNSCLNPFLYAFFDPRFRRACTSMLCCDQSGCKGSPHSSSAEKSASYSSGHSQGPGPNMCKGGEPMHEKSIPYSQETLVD
Kind of series: Apelin receptor-EGFP internalization, confocal microscopy. The series is classed as cell-based. The protocol:
The internalization assay was performed as described previously with CHO cells stably expressing the rat apelin receptor-EGFP (43). […] Cells were then mounted in Aquapolymount (Polysciences, Warrington, Pa., USA) for confocal microscopic analysis (Sec (42) for details).

Series [4] in a line: Stability in mouse plasma at 37° C. On the procedure: For each compound, the stock solution (100 μM in water) was diluted in plasma to a final incubation concentration of 5 μM. The incubation at 37° C. was stopped respectively at to and 4 h by adding one volume of ice cold acetonitrile containing 0.1% trifluoroacetic acid. The sample was vortexed for 1 min and then centrifuged at 4° C. before LC-MS injection of the supernatant. Analyses were performed on a Kinetex RP-C18 column (2.6 μm, 100 Å, 50×4.6 mm) using a linear gradient (solvent B in solvent A, solvent A: water/0.05% TFA; solvent B: acetonitrile; flow rate of 2 mL·min^−1: detection at 358 nm). The percentage of remaining test compound relative to t0 was measured by monitoring the peak area of the chromatogram.

Series [5] relates to water-deprived or euhydrated mice. As to the kind of experiment: Plasma AVP after i.c.v. injection (RIA). Type of series: in vivo, mouse.
Experimental: Animals were killed 1 min after the injection, and trunk blood (0.5-1 ml) was collected in chilled tubes containing 50 μl of 0.3 M EDTA pH 7.4. […] RIA kit (Peninsula Laboratories International Inc, San Carlo, USA).
Series [6] concerns the target T1, rat apelin receptor-EGFP. As to the kind of experiment: ERK1/2 phosphorylation (Alphascreen). The series is classed as cell-based. The text has this:
ERK1/2 phosphorylation was then monitored by Alphascreen technology.
On the technique in general: Bead proximity is the source of the signal in Alpha formats.

The target of series [7] is T1, rat apelin receptor-EGFP. Kind of series: [125I]pE13F radioligand binding on CHO membrane preparations. On the procedure: Crude membrane preparation from CHO stably expressing the wild-type rat apelin receptor-EGFP, were prepared as previously described (39). […] The reaction was stopped by adding ice-cold binding buffer and filtered through glass microfiber filters (Whatman GF/C filters). Radioactivity was counted in Wizard 1470 Wallac gamma counter (Perkin Elmer, Turku, Finland).

For series [8], the target named is T1, rat apelin receptor-EGFP. As to the kind of experiment: Inhibition of forskolin-induced cAMP production (HTRF). Type of series: cell-based.
Experimental: cAMP was quantified using the cAMP dynamic 2 assay kit (Cisbio Bioassays, Codolet, France) based on homogeneous time-resolved fluorescence (HTRF) technology. The stimulation was done in the stimulation buffer (HBSS, 5 mM Hepes, 0.1% BSA stabilizer, 1 mM IBMX, pH 7.4). Briefly, 2,000/well CHO cells stably expressing the rat apelin receptor-EGFP were added into 384-well plate and stimulated with 10^−6 M forskolin (FSK) and increasing concentrations (10^−14 to 10^−4 M) of apelins or its analogs for 30 min at room temperature. Cells were then lyzed, and cAMP levels were determined following manufacturer instructions.
The subject of series [9] is anaesthesized normotensive Wistar rats. Kind of series: Arterial blood pressure after i.v. injection. The series is classed as in vivo, rat. The protocol: The resulting solution was administered to the rats via a catheter inserted into the right femoral vein, and was immediately followed by 0.2 ml Krebs buffer alone to flush the venous catheter. An additional catheter was inserted into the right femoral artery, as previously described (47), for the monitoring of mean arterial blood pressure (MBP) as previously described (48). The arterial catheter was connected to a COBE CDX III pressure transducer (Phymep, Paris, France) linked to the Maclab system (Phymep, Paris, France). HR measurement was triggered by the blood pressure signal. BP was continuously recorded throughout the experiment. […] Mean AUC for each group were then calculated. Unpaired Student's t test was used to determine whether BP observed in response to substances administered […].) has statistically significant difference.

The mark [10] stands for this setting: [125I]pE13F binding I (nM), Table 2.
Setting [11] is: 15 nmol i.v., listed as JFM V-01961.
Setting [12] is: Table 2, read-out: cAMP production IC50.

Like-named read-outs stand apart in the source and are kept apart here. Where a SMILES comes first, the peptide text is derived from it.

The term half-life denotes how long it takes for the measured level to halve. High values mean slow loss, low ones fast loss. For orientation: Ki means the equilibrium dissociation constant of an inhibitor or competing ligand from its target. Lower therefore signals a stronger hold on the target. What is called IC50 is the concentration that gives 50% inhibition. `CSCC[C@H](NC(=O)[C@@H]1CCCN1C(=O)CNC(=O)[C@H](CCCCN)NC(=O)[C@H](Cc1c[nH]cn1)NC(=O)[C@H](CO)NC(=O)[C@H](CC(C)C)NC(=O)[C@H](CCCNC(=N)N)NC(=O)[C@@H]1CCCN1C(=O)[C@H](CCCNC(=N)N)NC(=O)[C@H](CCC(N)=O)NC(=O)[C@H](CCCNC(=N)N)NC(=O)[C@H](CCCNC(=N)N)NC(=O)[C@H](Cc1ccccc1)NC(=O)[C@H](CCCCN)NC(=O)CCC(F)(F)C(F)(F)C(F)(F)C(F)(F)C(F)(F)C(F)(F)C(F)(F)C(F)(F)F)C(=O)N1CCC[C@H]1C(=O)N[C@@H](Cc1ccccc1)C(=O)O` [JFM V-0196B]: in series [1] (500 nM, 1 nM Ang II, from 12.97±0.50 μm), the “arteriolar diameter after application to Ang II-precontracted arterioles” value amounted to 13.88±0.45 μm. In addition, in series [1] (L-NAME, NO synthase inhibitor), the “vasorelaxant effect in the presence of L-NAME” value is on record as “not significantly changed”. Moreover, the “vasorelaxing effect at maximal concentration” value in series [2] (100 μM) was determined as 60±3%. The EC50 in series [3] is 0.41 ± 0.16 nM. In addition, in [4] (Table 4, mouse plasma, 37° C.), the “starting peptide remaining after 4 h” value is 100% of starting peptide after 4 h. This molecule had a half-life at 5 μM in series [4] (mouse, plasma) of over 4 h. In [5] (euhydrated mice, supramaximal dose 1 μg i.c.v.), the “effect on plasma AVP levels in euhydrated mice” value is listed as “no effect on plasma AVP levels”. The “maximal decrease in AVP release” value in [5] (water-deprived mice, 0.01 μg i.c.v.) is −75%. In series [6], the EC50 worked out at 0.89 ± 0.61 nM. Also, the Ki in series [7] (Binding affinity Ki (nM), Table 7, additional experiments vs Table 2) was 0.08 ± 0.01 nM. In [7] (Ki for the apelin receptor (affinity), competition with [125I]pE13F, CHO membranes), this molecule had a Ki of 0.2 nM. In series [7] (setting [10]), affinity was put at a Ki of 0.21 ± 0.27 nM. In series [8], this molecule registered an IC50 of 3.13 ± 1.43 nM. Besides, in [9] (15 nmol i.v.), the “duration of the hypotensive effect, fold higher than K17F” value was 27 fold and the “maximal hypotensive response, fold higher than K17F” value was found to be 9 fold. For the same molecule, the “BP decrease at the plateau value after 30 min” value in series [9] (15 nmol i.v., after 30 min) is on record as 21 mmHg. In series [9] (setting [11]), the “duration of the hypotensive effect, fold higher than K17F” value amounted to 8 fold and the “maximal hypotensive response, fold higher than K17F” value was 6.7 fold. Moreover, in [9] (15 nmol/rat i.v.), the “time of maximal hypotensive response after injection” value is given as 10 min. Moreover, in [9] (Table 5, 15 nmol i.v.), the “Maximal decrease in BP (mmHg)” value is reported as −52 mmHg, the “Time For maximal BP decrease” value worked out at 10 min, the “Time to return to a plateau value” amounted to 33 min and the “plateau value reached (in brackets)” value is given as −21 mmHg.

`CCCC[C@H](NC(=O)[C@@H]1CCCN1C(=O)[C@@H](C)NC(=O)[C@H](CCCCN)NC(=O)C(C)(C)NC(=O)[C@H](CO)NC(=O)[C@@H](CC(C)C)NC(=O)[C@H](CCCNC(=N)N)NC(=O)[C@@H]1CCCN1C(=O)[C@H](CCCNC(=N)N)NC(C)=O)C(=O)N1CCC[C@H]1C(=O)N[C@@H](Cc1ccc(Br)cc1)C(=O)O` [P26, N-Acetyl-Arg-Pro-Arg-DLeu-Ser-Aib-Lys-DAla-Pro-Nle-Pro-(4-Br)Phe-OH] (HELM PEPTIDE1{[ac].R.P.R.[dL].S.[Aib].K.[dA].P.[Nle].P.[O=C(O)[C@H](Cc1ccc(Br)cc1)N[*:1]]}$$$$V2.0): the maximal relaxant effect in series [2] (precontraction 3×10^−6 M NA) is listed as 93±3%. Further, in series [2] (precontraction 3×10^−6 M NA), the “potency (pD2) of relaxation” value is on record as 6.27±0.42. In addition, the EC50 was found to be 2.11 ± 1.14 nM in series [3] (20 min, read-out: EC50 apelin receptor internalization); 71.3 ± 19.1 nM in series [6] (10 min, read-out: EC50 ERK1/2 phosphorylation); 72.1 ± 19.6 nM in series [6] (Table 7, read-out: ERK1/2 phosphorylation EC50). The half-life at 5 μM in series [4] (mouse, plasma) is 1.43 h. Further, the “ERK1/2 EC50 times higher than K17F” value in series [6] turned out to be 18 times. In addition, the Ki in series [7] (setting [10]) was found to be 2.11 ± 0.4 nM. The IC50 in series [8] (10^−6 M forskolin, read-out: IC50 inhibition of forskolin-induced cAMP production) came to 4.4 ± 0.9 nM; in series [8] (setting [12]), 2.22 ± 1 nM.

With `CCCCCCCCCCCCCCCC(=O)N[C@@H](CCCCN)C(=O)N[C@@H](Cc1ccccc1)C(=O)N[C@@H](CCCNC(=N)N)C(=O)N[C@@H](CCCNC(=N)N)C(=O)N[C@@H](CCC(N)=O)C(=O)N[C@@H](CCCNC(=N)N)C(=O)N1CCC[C@H]1C(=O)N[C@@H](CCCNC(=N)N)C(=O)N[C@@H](CC(C)C)C(=O)N[C@@H](CO)C(=O)N[C@@H](Cc1c[nH]cn1)C(=O)N[C@@H](CCCCN)C(=O)NCC(=O)N1CCC[C@H]1C(=O)N[C@@H](CCSC)C(=O)N1CCC[C@H]1C(=O)N[C@@H](Cc1ccccc1)C(=O)O` [JFM V-0196A], the “starting peptide remaining after 4 h” value in [4] (mouse, plasma) was 100% of star-ring peptide after 4 h. The molecule further had a Ki in series [7] (setting [10]) of 0.76 ± 0.13 nM. The IC50 in [8] (setting [12]) stood at 3.9 ± 1.5 nM.
